Test results: patent US20150293106A1, “DIAROMATIC AMINO ACID SUBSTRATE FOR CATHEPSIN DETECTION” (INDUSTRY-ACADEMIC COOPERATION FOUNDATION, YONSEI UNIVERSITY, priority 2012, published 2015)
Read-outs that look alike come from different tables or passages of the source. Marks after values point to notes of the source that are not given here. Where no end group is shown, it is not given here. [ ]: non-standard residue; d: D form. The star is where a group is joined. Dnp = O=[N+]([O-])c1ccc(*)c([N+](=O)[O-])c1; 2Abz = Nc1ccccc1C(=O)O

Experiments:
chymotrypsin = biological target: T1, chymotrypsin (Bos taurus, UniProt P00766); assay: Degree of hydrolysis by protease (Table 3); type: biochemical, bovine; settings: after 2 hours, protease 10 μM, substrate 0.2 mM (G1-G3, L1-L3) or 0.1 mM (G4, L4), n.d. = no hydrolysis was detected, hydrolysate Gly-INH (G), Lys-INH (L1-L3)
T1 construct: chymotrypsin and trypsin derived from fetal bovine pancreas; purchased Sigma-Aldrich Chemical Co; host or cells: bovine pancreas
Experimental: (§1) A hydrolysate was measured using a HPLC system.

trypsin = biological target: T2, trypsin (Bos taurus, UniProt P00760); assay: Degree of hydrolysis by protease (Table 3); type: biochemical, bovine; settings: after 2 hours; protease 10 μM; substrate 0.2 mM (G1-G3, L1-L3) or 0.1 mM (G4, L4); n.d. = no hydrolysis was detected; hydrolysate INH
T2 construct: chymotrypsin and trypsin derived from fetal bovine pancreas; purchased Sigma-Aldrich Chemical Co; host or cells: bovine pancreas
T2 sequence (P00760 24-246): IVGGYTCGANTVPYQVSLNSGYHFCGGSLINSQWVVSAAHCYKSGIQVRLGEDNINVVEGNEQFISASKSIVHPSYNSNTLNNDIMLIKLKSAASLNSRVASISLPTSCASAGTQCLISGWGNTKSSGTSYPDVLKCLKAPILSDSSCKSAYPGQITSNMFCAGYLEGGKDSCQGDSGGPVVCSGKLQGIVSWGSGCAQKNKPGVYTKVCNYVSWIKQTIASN
Experimental: as §1

papain = biological target: T3, papain (Carica papaya, UniProt P00784); assay: Degree of hydrolysis by protease (Table 3); type: biochemical, papaya latex; settings: after 2 hours; protease 10 μM; substrate 0.2 mM (G1-G3, L1-L3) or 0.1 mM (G4, L4); hydrolysate INH
T3 construct: papain and chymopapain derived from papaya latex; purchased Sigma-Aldrich Chemical Co; host or cells: papaya latex
T3 sequence (P00784 134-345): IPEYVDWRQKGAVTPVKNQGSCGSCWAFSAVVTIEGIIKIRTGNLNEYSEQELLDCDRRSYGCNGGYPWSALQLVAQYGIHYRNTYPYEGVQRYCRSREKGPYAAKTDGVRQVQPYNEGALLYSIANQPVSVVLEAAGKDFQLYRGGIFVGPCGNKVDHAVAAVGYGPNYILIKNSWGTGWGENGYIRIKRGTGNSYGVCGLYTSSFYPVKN
Experimental: as §1

thermolysin [1] = biological target: T4, thermolysin (Bacillus thermoproteolyticus, UniProt P00800); settings: substrate 2.5 μM, protease 0.1 μM, two hours; hydrolysate amino acid-INH
T4 sequence (P00800 233-548): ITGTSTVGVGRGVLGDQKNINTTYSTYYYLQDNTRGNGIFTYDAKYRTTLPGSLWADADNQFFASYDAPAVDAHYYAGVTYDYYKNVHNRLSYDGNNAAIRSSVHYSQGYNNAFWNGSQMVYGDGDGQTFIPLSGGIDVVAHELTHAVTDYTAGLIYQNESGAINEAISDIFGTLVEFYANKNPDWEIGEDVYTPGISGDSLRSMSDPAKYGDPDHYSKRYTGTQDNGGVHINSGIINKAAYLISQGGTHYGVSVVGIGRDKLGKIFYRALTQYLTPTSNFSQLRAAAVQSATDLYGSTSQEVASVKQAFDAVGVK
Experimental: (§2) For the meaningful comparison of proteases, a hydrolysis reaction was performed under the optimum conditions as reported in other documents (regarding chymotrypsin, subtilisin, thermolysin and pepsin, refer to R. Beynon, J. S. Bond, Proteolytic Enzymes (Second Edition), Oxford University Press, 2001, pp. 295-316; regarding trypsin, proteinase K, carboxy peptidase A, collagenase, dispase, aspergillopepsin, papain, chymopapain, bromelain, cathepsin B, cathepsin L, and cathepsin S, refer to the catalog of Sigma-Aldrich Corporation).
(§3) Before the reaction, the mixtures of the reaction buffer solutions and proteases were previously incubated for 30 minutes in a water bath in which the temperature was adjusted to an analysis temperature. The hydrolysis reaction was initiated by adding a substrate dissolved in DMSO. The volume of the added substrate solution was controlled such that the final concentration of DMSO was lower than 1.5% (v/v).
The λex and λem were respectively adjusted to 284 nm and 410 nm with respect to papain, chymopapain, bromelain, cathepsins, aspergillopepsin and pepsin, and the λex and λem were respectively adjusted to 320 nm and 410 nm with respect to chymotrypsin, trypsin, subtilisin, proteinase K, thermolysin, carboxypeptidase A, collagenase and dispase. The reaction was performed under alkaline conditions.
The fluorescence measured at the end of the reaction was expressed as a final fluorescence.
The initial concentrations of each substrate and protease were respectively set to 2.5 μM and 0.1 μM. The hydrolysis reaction was performed for two hours. Reference numbers on an X-axis denoted the following: C1=papain; C2=chymopapain; C3=bromelain; S1=chymotrypsin; S2=trypsin; S3=subtilisin; S4=proteinase K; M1=thermolysin; M2=carboxypeptidase A; M3=dispase; M4=collagenase; A1=pepsin; and A2=aspergillopepsin. Each experiment was repeated at least three times.

dispase = biological target: T5, dispase (Paenibacillus polymyxa, UniProt P29148); assay: Protease-catalyzed hydrolysis, restored DBDY fluorescence (selectivity, FIGS. 11-19); type: biochemical, bacillus polymyxa; settings: substrate 2.5 μM, protease 0.1 μM, two hours; hydrolysate amino acid-INH
T5 construct: dispase derived from bacillus polymyxa; purchased Sigma-Aldrich Chemical Co; host or cells: Bacillus polymyxa
T5 sequence (P29148 287-590): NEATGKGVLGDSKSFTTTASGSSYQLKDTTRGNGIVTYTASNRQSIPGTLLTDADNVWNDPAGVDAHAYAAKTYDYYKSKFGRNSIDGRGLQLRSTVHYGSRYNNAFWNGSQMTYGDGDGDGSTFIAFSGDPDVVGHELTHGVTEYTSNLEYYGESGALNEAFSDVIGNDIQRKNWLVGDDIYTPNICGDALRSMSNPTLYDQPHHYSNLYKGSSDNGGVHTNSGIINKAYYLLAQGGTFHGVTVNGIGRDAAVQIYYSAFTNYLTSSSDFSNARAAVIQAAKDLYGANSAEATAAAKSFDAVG
Experimental: (§4) The reaction was performed under alkaline conditions.
The hydrolysis reaction was performed for two hours. […] Each experiment was repeated at least three times.

pepsin = biological target: T6, pepsin (Sus scrofa, UniProt P00791); assay: Degree of hydrolysis by protease (Table 3); type: biochemical, pig; settings: after 2 hours; protease 10 μM; substrate 0.2 mM (G1-G3, L1-L3) or 0.1 mM (G4, L4); n.d. = no hydrolysis was detected; hydrolysate INH
T6 construct: pepsin derived from pig gastric mucosa; purchased Sigma-Aldrich Chemical Co; host or cells: pig gastric mucosa
T6 sequence (P00791 60-385): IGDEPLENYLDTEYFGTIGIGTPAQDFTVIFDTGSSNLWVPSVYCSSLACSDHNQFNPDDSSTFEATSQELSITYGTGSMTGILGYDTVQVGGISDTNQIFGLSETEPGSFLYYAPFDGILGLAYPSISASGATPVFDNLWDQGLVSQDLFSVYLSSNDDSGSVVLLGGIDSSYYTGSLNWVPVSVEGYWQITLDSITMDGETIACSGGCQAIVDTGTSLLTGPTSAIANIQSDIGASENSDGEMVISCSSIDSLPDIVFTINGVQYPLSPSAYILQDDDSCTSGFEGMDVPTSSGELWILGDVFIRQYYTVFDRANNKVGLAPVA
Experimental: as §1

thermolysin [2] = biological target: T4, thermolysin; settings: after 2 hours; protease 10 μM; substrate 0.2 mM (G1-G3, L1-L3) or 0.1 mM (G4, L4); n.d. = no hydrolysis was detected; hydrolysate INH
Experimental: as §2, §3
A hydrolysate was measured using a HPLC system. In order to prepare a sample, a hydrolysis reaction was terminated by adding 2% (v/v) 1M HCl with respect to a serine protease, cysteine protease and metalloprotease, and adding 1M NaOH with respect to an aspartic protease. The separation was performed using the mixture of 10 mM-ammonium bicarbonate and acetonitrile as an eluent in C-18 column (particle size: 5 μm, 250 mm×4.6 mm, pore size: 80 Å, Phenomenex, USA). The elution was performed for 15 minutes, while the linear gradient of acetonitrile was increased from 0 to 60%. The flow rate and separation temperature of the eluent were maintained at 1 mL min^−1 and 35° C. The hydrolysate was detected at a wavelength of 254 nm.
Based on the report that a hydrophobic amino acid such as phenylalanine was preferred at a P2 position in most of the papain-like cysteine proteases, Boc-aromatic amino acid-Gly-INH and Boc-aromatic amino acid-Lys-INH were prepared in particular, and experimented as a substrate with respect to chymotrypsin, trypsin, papain, pepsin and thermolysis.

cathepsin B [3] = biological target: T7, cathepsin B (Homo sapiens, UniProt P07858); settings: reported for other substances, cited from earlier work
cathepsin L = biological target: T8, cathepsin L (Homo sapiens, UniProt P07711); assay: Selective hydrolysis by cathepsins, fluorescence (FIG. 20); type: biochemical; settings: inventors' earlier research on DBDY-(INH)2; conditions not given
T8 construct: cathepsins B and L derived from a human liver; purchased Sigma-Aldrich Chemical Co; host or cells: human liver
T8 sequence (P07711 114-333): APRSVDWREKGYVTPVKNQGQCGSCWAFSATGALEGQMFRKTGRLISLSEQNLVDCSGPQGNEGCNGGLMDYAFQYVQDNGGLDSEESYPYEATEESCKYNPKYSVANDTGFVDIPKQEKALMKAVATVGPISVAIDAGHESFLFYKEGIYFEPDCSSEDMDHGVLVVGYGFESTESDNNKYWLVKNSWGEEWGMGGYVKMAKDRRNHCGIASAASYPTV
Experimental: as §4
(§5) The results of experiments were illustrated in FIG. 20. Since the hydrolysis by cathepsin B was faster than the hydrolyses by papain and chymopapain, the reaction was performed with a substrate (concentration: 1.0 μM) and a protease (concentration: […]) of which the concentrations were set lower than those in Experimental Example 2 (substrate (concentration: 2.5 μM) and protease (concentration: 0.1 μM) reacted for two hours) for 30 minutes in FIG. 20. C1, C2, CB, CL, and CS represented on an X-axis respectively denote papain, chymopapain, cathepsin B, cathepsin L, and cathepsin S. Each experiment was repeated at least three times.

cathepsin B [4] = biological target: T7, cathepsin B; assay: as above; type: biochemical; parameters: cathepsins B and L derived from a human liver; purchased Sigma-Aldrich Chemical Co; host or cells: human liver; settings: inventors' earlier research on DBDY-(INH)2; conditions not given
Experimental: as §4, §5

CC(C)(C)OC(=O)NC(Cc1ccccc1)C(=O)NC(CCCCN)C(=O)NNC(=O)c1ccncc1 (stereo not drawn) [Substrate L2, Boc-Phe-Lys-INH]
degree of hydrolysis by Chymotrypsin (chymotrypsin): 53.2 ± 4.8 ^e %
degree of hydrolysis by Trypsin (trypsin): 81.2 ± 4.9%
degree of hydrolysis by Papain (papain): 89.1 ± 2.5%

CSCC[C@H](NC(=O)C(Cc1ccc(O)c(-c2cc(CC(NC(=O)OC(C)(C)C)C(=O)N[C@@H](CCSC)C(=O)NNC(=O)c3ccncc3)ccc2O)c1)NC(=O)OC(C)(C)C)C(=O)NNC(=O)c1ccncc1 (stereo partly shown) [DBDY-(Met-INH)2]
sensitivity for thermolysin (hydrolysis, increased fluorescence) (thermolysin [1]): high sensitivity
sensitivity for dispase (hydrolysis, increased fluorescence) (dispase): high sensitivity

CC(C)C[C@H](NC(=O)C(Cc1ccc(O)c(-c2cc(CC(NC(=O)OC(C)(C)C)C(=O)N[C@@H](CC(C)C)C(=O)NNC(=O)c3ccncc3)ccc2O)c1)NC(=O)OC(C)(C)C)C(=O)NNC(=O)c1ccncc1 (stereo partly shown) [DBDY-(Leu-INH)2]
sensitivity for thermolysin (hydrolysis, increased fluorescence) (thermolysin [1]): high sensitivity
sensitivity for dispase (hydrolysis, increased fluorescence) (dispase): high sensitivity

CC(C)(C)OC(=O)NC(Cc1c[nH]c2ccccc12)C(=O)NCC(=O)NNC(=O)c1ccncc1 (stereo not drawn) [Substrate G3, Boc-Trp-Gly-INH]
degree of hydrolysis by Chymotrypsin (chymotrypsin): 17.3 ± 5.5 ^d %
degree of hydrolysis by Papain (papain): 58.8 ± 6.2%
degree of hydrolysis by Pepsin (pepsin): 3.21 ± 0.45%
degree of hydrolysis by Thermolysin (thermolysin [2]): 0.74 ± 0.05%

CC(C)[C@H](NC(=O)C(Cc1ccc(O)c(-c2cc(CC(NC(=O)OC(C)(C)C)C(=O)N[C@H](C(=O)NNC(=O)c3ccncc3)C(C)C)ccc2O)c1)NC(=O)OC(C)(C)C)C(=O)NNC(=O)c1ccncc1 (stereo partly shown) [DBDY-(Val-INH)2]
sensitivity for thermolysin (hydrolysis, increased fluorescence) (thermolysin [1]): high sensitivity
sensitivity for dispase (hydrolysis, increased fluorescence) (dispase): high sensitivity

CC(C)(C)OC(=O)NC(Cc1ccc(O)cc1)C(=O)NCC(=O)NNC(=O)c1ccncc1 (stereo not drawn) [Substrate G1, Boc-Tyr- Gly-INH]
degree of hydrolysis by Chymotrypsin (chymotrypsin): 38.7 ± 2.9 ^d %
degree of hydrolysis by Papain (papain): 62.8 ± 2.5%
degree of hydrolysis by Pepsin (pepsin): 2.34 ± 0.45%
degree of hydrolysis by Thermolysin (thermolysin [2]): 0.74 ± 0.02%

CC(C)(C)OC(=O)NC(Cc1ccc(O)c(-c2cc(CC(NC(=O)OC(C)(C)C)C(=O)N[C@@H](Cc3ccccc3)C(=O)NNC(=O)c3ccncc3)ccc2O)c1)C(=O)N[C@@H](Cc1ccccc1)C(=O)NNC(=O)c1ccncc1 (stereo partly shown) [DBDY-(Phe-INH)2]
sensitivity for thermolysin (hydrolysis, increased fluorescence) (thermolysin [1]): high sensitivity
sensitivity for dispase (hydrolysis, increased fluorescence) (dispase): high sensitivity

CC(C)(C)OC(=O)NC(Cc1ccc(O)cc1)C(=O)NC(CCCCN)C(=O)NNC(=O)c1ccncc1 (stereo not drawn) [Substrate L1, Boc-Tyr-Lys-INH]
degree of hydrolysis by Chymotrypsin (chymotrypsin): 37.6 ± 5.2 ^e %
degree of hydrolysis by Trypsin (trypsin): 69.6 ± 4.1%
degree of hydrolysis by Papain (papain): 77.4 ± 5.8%
degree of hydrolysis by Pepsin (pepsin): 0.74 ± 0.04%

CC[C@H](C)[C@H](NC(=O)C(Cc1ccc(O)c(-c2cc(CC(NC(=O)OC(C)(C)C)C(=O)N[C@H](C(=O)NNC(=O)c3ccncc3)[C@@H](C)CC)ccc2O)c1)NC(=O)OC(C)(C)C)C(=O)NNC(=O)c1ccncc1 (stereo partly shown) [DBDY-(Ile-INH)2]
sensitivity for thermolysin (hydrolysis, increased fluorescence) (thermolysin [1]): high sensitivity
sensitivity for dispase (hydrolysis, increased fluorescence) (dispase): high sensitivity

CC(C)(C)OC(=O)NC(Cc1ccccc1)C(=O)NCC(=O)NNC(=O)c1ccncc1 (stereo not drawn) [Substrate G2, Boc-Phe-Gly-INH]
degree of hydrolysis by Chymotrypsin (chymotrypsin): 28.6 ± 3.4 ^d %
degree of hydrolysis by Papain (papain): 51.0 ± 3.5%
degree of hydrolysis by Pepsin (pepsin): 1.61 ± 0.05%

Abz-Gly-Ile-Val-Arg-Ala-Lys(Dnp)-OH ([2Abz]GIVRAK(Dnp)-OH)
Km (cathepsin B [3]; unit inferred): 5900 nM

Abz-Phe-Arg-Dap(Dnp)-Trp-OH
Km (cathepsin B [3]): 3000 nM

Abz-Phe-Phe-Dap(Dnp)-Trp-OH
Km (cathepsin B [3]): 2100 nM

CC(C)(C)OC(=O)NC(Cc1c[nH]c2ccccc12)C(=O)NC(CCCCN)C(=O)NNC(=O)c1ccncc1 (stereo not drawn) [Substrate L3, Boc-Trp-Lys-INH]
degree of hydrolysis by Chymotrypsin (chymotrypsin): 58.3 ± 1.2 ^e %
degree of hydrolysis by Trypsin (trypsin): 85.1 ± 3.7%
degree of hydrolysis by Papain (papain): 93.1 ± 8.9%
degree of hydrolysis by Thermolysin (thermolysin [2]): 4.04 ± 0.08%

CC(C)(C)OC(=O)NC(Cc1ccc(O)c(-c2cc(CC(NC(=O)OC(C)(C)C)C(=O)NNC(=O)c3ccncc3)ccc2O)c1)C(=O)NNC(=O)c1ccncc1 (stereo not shown) [DBDY-(INH)2, reference compound]
hydrolysis by cathepsin L (cathepsin L): not hydrolyzed
hydrolysis by cathepsin B (cathepsin B [4]): not hydrolyzed
